Measurements reported in patent US10980824B2, “Pharmaceutical composition comprising quercetin-3-O-β-D-xylopyranoside for preventing or treating liver disease” (Hongcheon Institute of Medical Herb, priority 2016, dated 2021).

Experiments:
Assay type in all cases: in vivo, C57BL/6N mice
Fas gene = assay: Real-time PCR of lipid metabolism gene expression in liver: Fas; settings: liver mRNA, relative to Pair-fed group; EtOH+B group, 1 mg/kg oral 10 days (FIG. 11)
Description: (§1) 8-week-old C57BL/6N mice were purchased from DAEHAN BIOLINK to be used for efficacy evaluation and quarantined and acclimated in a vivarium of HONGCHEON INSTITUTE OF MEDICAL HERB for 7 days (relative temperature: 23±2° C., relative humidity: 50±5%, and a 12 h light-dark cycle) prior to the start of experimentation. Among them, 18 male mice with no abnormal symptoms were selected and used.
(§2) During a liquid diet adaptation period, a control group was restrictedly fed with a Lieber-DeCarli'82 control liquid diet (F1259SP, Bio-serv), and an alcohol-fed group was restrictedly fed with a Lieber-DeCarli'82 ethanol liquid diet (F1258SP, Bio-serv) using a Liquid diet feeding tube (9019, Bio-serv), and the diets were replaced with new ones at a preset time between 3 P.M. and 5 P.M. […]
(§3) Real-time quantitative PCR was performed using a 7500 Real-time Thermal Cycler (Applied Biosystems, USA) with SYBR Green (Applied Biosystems, USA) to measure gene expression. […]
(§4) PCR amplification steps as described below were repeated for up to 40 cycles. […] Values were recorded after extension at every cycle.
(§5) After completion of all cycles, melting curve analysis was carried out to verify specificity of the primers. The results were analyzed using the One step system software v2.1 provided by Applied Biosystems.

Fabp gene = assay: Real-time PCR of lipid metabolism gene expression in liver: Fabp; settings: liver mRNA, relative to Pair-fed group; EtOH+B group, 1 mg/kg oral 10 days (FIG. 11)
Description: as §1, §2, §3, §4, §5

[1] = test system: alcoholic steatosis-induced mice; assay: Concentrations of triglycerides in the blood and liver; settings: 1 mg/kg oral 10 days; EtOH+B vs EtOH-fed (FIG. 7)
Description: as §1
(§6) During a liquid diet adaptation period, a control group was restrictedly fed with a Lieber-DeCarli'82 control liquid diet (F1259SP, Bio-serv), and an alcohol-fed group was restrictedly fed with a Lieber-DeCarli'82 ethanol liquid diet (F1258SP, Bio-serv) using a Liquid diet feeding tube (9019, Bio-serv), and the diets were replaced with new ones at a preset time between 3 P.M. and 5 P.M.
(§7) After 5 days of the liquid diet adaptation period, the mice were orally administered with 1 mg/kg of quercetin-3-O-β-D-xylopyranoside (test substance) for 10 days and fed with a 5% alcohol liquid diet. At 11th day, between 7 A.M. and 9 A.M., a group not fed with alcohol (hereinafter referred to as Pair-fed group) was orally administered with a 45% maltose dextrin solution, and a group fed with a 5% liquid diet (hereinafter referred to as EtOH-fed) and a group administered with a test substance (hereinafter referred to as EtOH+B group) were orally fed with 31.5% ethanol. […]

Cd36 gene = assay: Real-time PCR of lipid metabolism gene expression in liver: Cd36; settings: liver mRNA, relative to Pair-fed group; EtOH+B group, 1 mg/kg oral 10 days (FIG. 11)
Description: as §1, §2, §3, §4, §5

ApoB gene = assay: Real-time PCR of lipid metabolism gene expression in liver: ApoB; settings: liver mRNA, relative to Pair-fed group; EtOH+B group, 1 mg/kg oral 10 days (FIG. 11)
Description: as §1, §2, §3, §4, §5

CPT-1 = assay: Western blot of CPT-1 in liver tissue; settings: compound group vs alcohol-fed group
Description: (§8) Expression of p-AMPKα, p-ACC, and CPT-1, which regulate intrahepatic lipid metabolism, was analyzed by western blot analysis to understand the mechanism involved in pathogenesis of alcoholic steatosis in detail. The specific western blot analysis method is as follows.
(§9) First, a mouse liver homogenate was prepared by using a RIPA buffer solution including a protease and tyrosine phosphatase inhibitor cocktail (Sigma). Protein concentrations of lysates were determined using a Bicinchoninic (BCA) Protein Assay Kit (Thermo Scientific, IL, USA) according to the manufacturer's instructions. Isolated soluble proteins ([…]) were separated on an 8% to 15% SDS-polyacrylamide gel. The separated proteins were electroblotted on a nitrocellulose transfer membrane (Bio-Rad, Hercules, Calif., USA). The membrane was incubated with 5% non-fat dry milk for 1 hour and then probed for antigens using antibodies diluted to 1:1,000, and was incubated with anti-pAMPKα, anti-AMPKα, anti-PACC, anti-ACC, anti-CYP2E1, anti-CPT1a (Cell Signaling Technology), and anti-β-actin (Santa Cruz Biotechnology) at 4° C. for 18 hours. […] Band density was measured using ImageJ (National Institutes of Health, Bethesda, Md., USA) and expressed as a multiple relative to β-actin.

MCP-1 = assay: mRNA level of MCP-1 by RT-PCR; settings: alcohol+compound group vs alcohol-fed group (FIG. 14)
Text: (§10) Monocyte chemoattractant protein 1 (MCP-1), called chemokine ligand 2 (CCL2), is one of the key chemokines that regulate pathogeneses of several diseases caused by monocyte infiltration. Meanwhile, interleukin 1 beta (IL1β), also known as a leukocytic endogenous mediator and a lymphocyte activating factor, is a member of the interleukin 1 family of cytokines. The cytokines are produced by activated macrophages at a damaged region of tissue.
(§11) Specifically, mRNA levels of MCP-1 and IL-1β were analyzed by using RT-PCR as described above in Example 2-8.

p-AMPKα = assay: Western blot of p-AMPKα in liver tissue
Description: as §8, §9

[2] = test system: alcoholic steatosis-induced mice; assay: Fat accumulation in the liver (visual observation, H&E staining, Oil Red O staining); settings: 1 mg/kg oral 10 days
Description: as §1, §6, §7

[3] = test system: alcoholic steatosis-induced mice; assay: Biochemical analysis of ALT and AST levels; settings: 1 mg/kg oral 10 days; EtOH+B vs EtOH-fed (FIG. 10)
Description: as §1, §6, §7

TNF-α = assay: Inhibitory effect on TNF-α in alcoholic steatosis mice; settings: liver tissue, vs alcohol-fed group (FIG. 12A)
Description: The level of TNF-α in liver tissue was measured by using RT-PCR and ELISA as described above in Example 2-7 to analyze whether the amount of TNF-α induced by alcohol was reduced due to treatment of quercetin-3-O-β-D-xylopyranoside.
A commercially available ELISA kit purchased from R&D Systems (Minneapolis, Minn.) was used.

IL-1β = assay: mRNA level of IL-1β by RT-PCR; settings: alcohol+compound group vs alcohol-fed group (FIG. 14)
Text: as §10, §11

[4] = test system: cytochrome P-450 2E1 (CYP2E1); assay: Expression of cytochrome P-450 2E1 by tissue staining; settings: liver tissue staining; 1 mg/kg oral 10 days; EtOH+B vs EtOH-fed (FIG. 8)
Description: as §1, §6, §7

[5] = test system: alcoholic steatosis-induced mice; assay: Apoptosis in liver tissue by TUNEL assay; settings: alcohol+compound group vs group fed with only alcohol (FIG. 15)
Description: DNA fragmentation characteristics of apoptosis were examined using a terminal deoxynucleotidyl transferase (TdT)-FragEL kit (Oncogene Research Products, San Diego, Calif.).
First, a tissue sample fixed in 4% paraformaldehyde was embedded in paraffin and sliced into 5 μm sections. Replicated sections were rehydrated and permeabilized with proteinase K (20 μg/mL) at 25° C. for 20 minutes. Subsequently, the sections were covered with 3% H2O2 for 5 minutes to inactivate endogenous peroxidase. After the sample was incubated in a TdT buffer solution (200 mM sodium-cacodylate, 30 mM Tris, 0.3 mg/mL BSA, 0.75 mM CoCl2, pH 6.6) for 5 minutes, slides were covered with TdT and biotinylated dUTP and incubated in a humidified chamber at 37° C. for 1.5 hours. Negative controls were incubated with biotinylated dUTP in a TdT buffer solution without enzyme. Reactions were terminated by adding a stop buffer (0.5 M EDTA, pH 8.0) thereto at room temperature for 5 minutes. After blocking with 4% BSA, the slides were incubated with a streptavidin-horseradish peroxidase conjugate for 30 minutes. Subsequently, the sections were incubated in DAB at room temperature for 12 minutes and counterstained with methyl green. Apoptotic cells were identified by stained properties and morphological criteria (cell contraction, chromatin condensation and/or margination, and apoptotic bodies).

[6] = Body weight, feed intake and excised organ weight of alcoholic steatosis-induced mice; settings: 1 mg/kg oral 10 days; conclusion from body and organ weights
Description: as §1, §6
After 5 days of the liquid diet adaptation period, the mice were orally administered with 1 mg/kg of quercetin-3-O-β-D-xylopyranoside (test substance) for 10 days and fed with a 5% alcohol liquid diet. At 11th day, between 7 A.M. and 9 A.M., a group not fed with alcohol (hereinafter referred to as Pair-fed group) was orally administered with a 45% maltose dextrin solution, and a group fed with a 5% liquid diet (hereinafter referred to as EtOH-fed) and a group administered with a test substance (hereinafter referred to as EtOH+B group) were orally fed with 31.5% ethanol.
2-1. […]

p-ACC = assay: Western blot of p-ACC in liver tissue; settings: compound group vs alcohol-fed group
Description: as §8, §9

adiponectin = assay: Effect on recovering adiponectin in alcoholic steatosis mice; settings: alcohol+compound group vs alcohol-fed group (FIG. 13)
Description: Adiponectin, which is a major anti-inflammatory agent, is an adipose tissue-derived adipokine. […] Thus, a plasma level of adiponectin was analyzed by ELISA to evaluate the effect of quercetin-3-O-β-D-xylopyranoside on regulation of the adiponectin content.
Specifically, the plasma level of adiponectin was analyzed by using RT-PCR and ELISA in the same manner as the measurement of the TNF-α level in liver tissue as described above in Example 2-8.

[7] = test system: alcoholic steatosis-induced mice; assay: Progression of hepatic fibrosis in reticular fibers by Gomori Reticulum staining; settings: 1 mg/kg oral 10 days; EtOH+B vs EtOH-fed (FIG. 9)
Description: as §1, §6, §7

Compound: O=c1c(O[C@@H]2OC[C@@H](O)[C@H](O)[C@H]2O)c(-c2ccc(O)c(O)c2)oc2cc(O)cc(O)c12 [quercetin-3-O-β-D-xylopyranoside]
- expression level of the Fas gene (Fas gene): 1.1 times
- expression level of the Fabp gene (Fabp gene): 0.7 times
- concentration of triglycerides in the blood [1]: significantly reduced
- concentration of triglycerides in the liver [1]: significantly reduced
- expression level of the Cd36 gene (Cd36 gene): 0.98 times
- expression level of the ApoB gene (ApoB gene): 0.8 times
- CPT-1 level (CPT-1): significantly restored
- mRNA level of MCP-1 (MCP-1): significantly reduced
- expression level of pAMPK (p-AMPKα; 10 mg/kg (FIGS. 16A and 16B)): significantly increased
- expression levels of AMPK protein (p-AMPKα; among the groups (FIGS. 16A and 16B)): no difference
- amount of lipid accumulated in the liver, dissection and visual observation ([2]; EtOH+B vs EtOH-fed (FIG. 5)): significantly reduced
- amount of lipid droplets in the liver tissue, H&E and Oil Red O staining ([2]; EtOH+B vs EtOH-fed (FIG. 6)): significantly reduced
- ALT level [3]: decreased
- AST level [3]: decreased
- expression level of RNA of TNF-α (TNF-α; 1 mg/kg): significantly inhibited
- expression level of RNA of TNF-α (TNF-α; 10 mg/kg): significantly inhibited
- mRNA level of IL-1β (IL-1β): significantly reduced
- CYP2E1 expression level [4]: far lower
- degree of apoptosis in liver tissue [5]: significantly reduced
- toxicity to mice and internal organs [6]: no toxicity
- p-ACC level (p-ACC): significantly restored
- plasma adiponectin level (adiponectin): significantly recovered
- progression of hepatic fibrosis in reticular fibers [7]: suppressed
